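Each compound was tested at five concentrations against cells in 96-well plates for 48 hours. At the GI50, growth is halved. TGI denotes the concentration required for complete inhibition of growth.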
Legend:
Experiment in all cases: NCI tumour cell line growth inhibition, 48 h
KM12 colon = tested on: KM12 colon
EKVX NSCLC = tested on: EKVX NSCLC
OVCAR-5 ovarian = tested on: OVCAR-5 ovarian
SNB-78 CNS = tested on: SNB-78 CNS
MOLT-4 leukemia = tested on: MOLT-4 leukemia
SF-295 CNS = tested on: SF-295 CNS
HCC-2998 colon = tested on: HCC-2998 colon
HL-60(TB) leukemia = tested on: HL-60(TB) leukemia
SNB-75 CNS = tested on: SNB-75 CNS
TK-10 renal = tested on: TK-10 renal
786-0 renal = tested on: 786-0 renal
IGROV1 ovarian = tested on: IGROV1 ovarian
CCRF-CEM leukemia = tested on: CCRF-CEM leukemia
SW-620 colon = tested on: SW-620 colon
SF-268 CNS = tested on: SF-268 CNS
M19-MEL melanoma = tested on: M19-MEL melanoma
KM20L2 colon = tested on: KM20L2 colon
NCI-H226 lung = tested on: NCI-H226 lung
HCT-15 colon = tested on: HCT-15 colon
DMS 273 small cell lung = tested on: DMS 273 small cell lung
COLO 205 colon = tested on: COLO 205 colon
SK-MEL-28 melanoma = tested on: SK-MEL-28 melanoma
HOP-18 NSCLC = tested on: HOP-18 NSCLC
OVCAR-4 ovarian = tested on: OVCAR-4 ovarian
NCI-H522 lung = tested on: NCI-H522 lung
SK-MEL-5 melanoma = tested on: SK-MEL-5 melanoma
UO-31 renal = tested on: UO-31 renal
RXF-631 renal = tested on: RXF-631 renal
A549 NSCLC = tested on: A549 NSCLC
K-562 leukemia = tested on: K-562 leukemia
U251 CNS = tested on: U251 CNS
HT29 colon = tested on: HT29 colon
NCI-H23 lung = tested on: NCI-H23 lung
M14 melanoma = tested on: M14 melanoma
SR leukemia = tested on: SR leukemia
SN12C renal = tested on: SN12C renal
SK-MEL-2 melanoma = tested on: SK-MEL-2 melanoma
CAKI-1 renal = tested on: CAKI-1 renal
LOX IMVI melanoma = tested on: LOX IMVI melanoma
OVCAR-8 ovarian = tested on: OVCAR-8 ovarian
RPMI-8226 leukemia = tested on: RPMI-8226 leukemia
MALME-3M melanoma = tested on: MALME-3M melanoma
OVCAR-3 ovarian = tested on: OVCAR-3 ovarian
HOP-92 NSCLC = tested on: HOP-92 NSCLC
HCT-116 colon = tested on: HCT-116 colon
SK-OV-3 ovarian = tested on: SK-OV-3 ovarian
NCI-H460 lung = tested on: NCI-H460 lung
DMS 114 small cell lung = tested on: DMS 114 small cell lung
ACHN renal = tested on: ACHN renal
DLD-1 colon = tested on: DLD-1 colon
UACC-62 melanoma = tested on: UACC-62 melanoma
XF 498 CNS = tested on: XF 498 CNS
HOP-62 NSCLC = tested on: HOP-62 NSCLC
SF-539 CNS = tested on: SF-539 CNS
A498 renal = tested on: A498 renal
RXF 393 renal = tested on: RXF 393 renal
LXFL 529 NSCLC = tested on: LXFL 529 NSCLC
SNB-19 CNS = tested on: SNB-19 CNS
UACC-257 melanoma = tested on: UACC-257 melanoma
P388 leukemia = tested on: P388 leukemia
DU-145 prostate = tested on: DU-145 prostate
SN12K1 renal = tested on: SN12K1 renal
PC-3 prostate = tested on: PC-3 prostate
MDA-N = tested on: MDA-N
T-47D breast = tested on: T-47D breast
NCI/ADR-RES ovarian = tested on: NCI/ADR-RES ovarian
MDA-MB-231 breast = tested on: MDA-MB-231 breast
MCF7 breast = tested on: MCF7 breast
HS 578T breast = tested on: HS 578T breast
P388/ADR leukemia = tested on: P388/ADR leukemia
BT-549 breast = tested on: BT-549 breast

C=C1C(=O)OC2/C=C(\C)C(O)/C=C\C(C)(O)CC(OC(=O)/C(C)=C/C)C12 (configuration not stated)
TGI (KM12 colon): > 100 µM
TGI (EKVX NSCLC): 77.9 µM
TGI (OVCAR-5 ovarian): > 100 µM
TGI (SNB-78 CNS): > 100 µM
TGI (MOLT-4 leukemia): 53.8 µM
TGI (SF-295 CNS): > 100 µM
TGI (HCC-2998 colon): > 100 µM
TGI (HL-60(TB) leukemia): > 64 µM
TGI (SNB-75 CNS): > 100 µM
TGI (TK-10 renal): > 100 µM
TGI (786-0 renal): 38 µM
TGI (IGROV1 ovarian): > 100 µM
TGI (CCRF-CEM leukemia): > 61.7 µM
TGI (SW-620 colon): 34.4 µM
TGI (SF-268 CNS): > 100 µM
TGI (M19-MEL melanoma): 37 µM
TGI (KM20L2 colon): > 38.5 µM
TGI (NCI-H226 lung): > 100 µM
TGI (HCT-15 colon): 33.8 µM
TGI (DMS 273 small cell lung): 37.3 µM
TGI (COLO 205 colon): 28.9 µM
TGI (SK-MEL-28 melanoma): 35.4 µM
TGI (HOP-18 NSCLC): > 100 µM
TGI (OVCAR-4 ovarian): > 100 µM
TGI (NCI-H522 lung): 26.2 µM
TGI (SK-MEL-5 melanoma): > 100 µM
TGI (UO-31 renal): > 100 µM
TGI (RXF-631 renal): > 100 µM
TGI (A549 NSCLC): > 100 µM
TGI (K-562 leukemia): > 84.6 µM
TGI (U251 CNS): > 100 µM
TGI (HT29 colon): > 100 µM
TGI (NCI-H23 lung): > 100 µM
TGI (M14 melanoma): 32.7 µM
TGI (SR leukemia): 55.7 µM
TGI (SN12C renal): 53.5 µM
TGI (SK-MEL-2 melanoma): 48.8 µM
TGI (CAKI-1 renal): > 66.7 µM
TGI (LOX IMVI melanoma): 36.6 µM
TGI (OVCAR-8 ovarian): 50.5 µM
TGI (RPMI-8226 leukemia): > 68.6 µM
TGI (MALME-3M melanoma): 40.4 µM
TGI (OVCAR-3 ovarian): 46.2 µM
TGI (HOP-92 NSCLC): 77.5 µM
TGI (HCT-116 colon): 30 µM
TGI (SK-OV-3 ovarian): > 100 µM
TGI (NCI-H460 lung): > 100 µM
TGI (DMS 114 small cell lung): > 78.2 µM
TGI (ACHN renal): 54.1 µM
TGI (DLD-1 colon): 28.3 µM
TGI (UACC-62 melanoma): 32.6 µM
TGI (XF 498 CNS): > 58.4 µM
TGI (HOP-62 NSCLC): > 100 µM
TGI (SF-539 CNS): 20.7 µM
TGI (A498 renal): > 100 µM
TGI (RXF 393 renal): 42.6 µM
TGI (LXFL 529 NSCLC): 29.1 µM
TGI (SNB-19 CNS): 98.8 µM
TGI (UACC-257 melanoma): > 77.1 µM

Cc1cc(C)nc(NS(=O)(=O)c2ccc(NC(=O)c3cccc4cc5ccccc5nc34)cc2)n1
TGI (KM12 colon): 84.9 µM
TGI (EKVX NSCLC): > 100 µM
TGI (OVCAR-5 ovarian): > 100 µM
TGI (SNB-78 CNS): 72.7 µM
TGI (MOLT-4 leukemia): > 100 µM
TGI (SF-295 CNS): > 100 µM
TGI (SNB-75 CNS): > 100 µM
TGI (TK-10 renal): > 100 µM
TGI (786-0 renal): > 100 µM
TGI (IGROV1 ovarian): > 100 µM
TGI (CCRF-CEM leukemia): 77.5 µM
TGI (SW-620 colon): > 100 µM
TGI (SF-268 CNS): > 100 µM
TGI (M19-MEL melanoma): 79 µM
TGI (KM20L2 colon): > 100 µM
TGI (NCI-H226 lung): 46.5 µM
TGI (HCT-15 colon): 58.5 µM
TGI (DMS 273 small cell lung): > 100 µM
TGI (COLO 205 colon): > 100 µM
TGI (SK-MEL-28 melanoma): > 100 µM
TGI (OVCAR-4 ovarian): > 100 µM
TGI (NCI-H522 lung): 54.3 µM
TGI (SK-MEL-5 melanoma): > 100 µM
TGI (UO-31 renal): > 100 µM
TGI (RXF-631 renal): > 100 µM
TGI (A549 NSCLC): > 100 µM
TGI (K-562 leukemia): > 100 µM
TGI (U251 CNS): > 100 µM
TGI (HT29 colon): > 100 µM
TGI (NCI-H23 lung): 86.5 µM
TGI (M14 melanoma): 51.4 µM
TGI (SN12C renal): > 100 µM
TGI (SK-MEL-2 melanoma): 85.6 µM
TGI (CAKI-1 renal): > 100 µM
TGI (LOX IMVI melanoma): 56.1 µM
TGI (OVCAR-8 ovarian): > 100 µM
TGI (RPMI-8226 leukemia): 85.7 µM
TGI (MALME-3M melanoma): 56.7 µM
TGI (OVCAR-3 ovarian): 65.3 µM
TGI (HCT-116 colon): 32.1 µM
TGI (SK-OV-3 ovarian): > 100 µM
TGI (NCI-H460 lung): > 100 µM
TGI (ACHN renal): > 100 µM
TGI (DLD-1 colon): 98.4 µM
TGI (UACC-62 melanoma): 79.3 µM
TGI (XF 498 CNS): 98.2 µM
TGI (HOP-62 NSCLC): > 100 µM
TGI (SF-539 CNS): 34 µM
TGI (A498 renal): 50.5 µM
TGI (RXF 393 renal): > 100 µM
TGI (LXFL 529 NSCLC): > 100 µM
TGI (SNB-19 CNS): 90.7 µM
TGI (UACC-257 melanoma): > 100 µM

C=C1C(C)C2C(Cc3ccccc3)NC(=O)C23C(OC(C)=O)/C=C/C(C)(O)CC(C)C/C=C/C3C1O (configuration not stated)
TGI (KM12 colon): > 100 µM
TGI (EKVX NSCLC): > 96.7 µM
TGI (P388 leukemia): 41.3 µM
TGI (OVCAR-5 ovarian): > 100 µM
TGI (SNB-78 CNS): 1.3 µM
TGI (MOLT-4 leukemia): 77.2 µM
TGI (DU-145 prostate): > 100 µM
TGI (SF-295 CNS): 33.2 µM
TGI (HCC-2998 colon): > 100 µM
TGI (SN12K1 renal): 37.1 µM
TGI (HL-60(TB) leukemia): 36 µM
TGI (SNB-75 CNS): 0.0862 µM
GI50 (PC-3 prostate): 15.8 µM
TGI (PC-3 prostate): > 100 µM
TGI (TK-10 renal): > 54.5 µM
TGI (786-0 renal): > 100 µM
TGI (IGROV1 ovarian): 48.2 µM
TGI (CCRF-CEM leukemia): 85 µM
TGI (SW-620 colon): > 100 µM
TGI (SF-268 CNS): 41.2 µM
TGI (M19-MEL melanoma): > 100 µM
TGI (KM20L2 colon): > 100 µM
TGI (MDA-N): > 100 µM
TGI (T-47D breast): > 100 µM
TGI (NCI-H226 lung): 42.3 µM
TGI (NCI/ADR-RES ovarian): > 100 µM
TGI (HCT-15 colon): > 100 µM
TGI (DMS 273 small cell lung): > 82 µM
TGI (COLO 205 colon): > 100 µM
TGI (SK-MEL-28 melanoma): > 97.7 µM
TGI (MDA-MB-231 breast): > 100 µM
TGI (HOP-18 NSCLC): 0.814 µM
TGI (OVCAR-4 ovarian): 82.9 µM
TGI (NCI-H522 lung): 45.1 µM
TGI (SK-MEL-5 melanoma): 35.6 µM
TGI (UO-31 renal): 1.1 µM
TGI (A549 NSCLC): > 100 µM
TGI (MCF7 breast): > 94.5 µM
TGI (HS 578T breast): 0.62 µM
TGI (K-562 leukemia): > 100 µM
TGI (U251 CNS): 18.4 µM
TGI (P388/ADR leukemia): 33.5 µM
TGI (HT29 colon): > 100 µM
TGI (NCI-H23 lung): 91.6 µM
TGI (M14 melanoma): > 100 µM
TGI (SR leukemia): > 59.9 µM
TGI (SN12C renal): > 100 µM
TGI (SK-MEL-2 melanoma): 76.5 µM
TGI (CAKI-1 renal): 3.08 µM
TGI (LOX IMVI melanoma): 19.2 µM
TGI (OVCAR-8 ovarian): > 100 µM
TGI (RPMI-8226 leukemia): 71.2 µM
TGI (MALME-3M melanoma): > 94.4 µM
TGI (OVCAR-3 ovarian): > 100 µM
TGI (HOP-92 NSCLC): 1.01 µM
TGI (HCT-116 colon): > 100 µM
TGI (SK-OV-3 ovarian): 46.6 µM
TGI (NCI-H460 lung): > 95.2 µM
TGI (DMS 114 small cell lung): > 100 µM
TGI (ACHN renal): > 100 µM
TGI (DLD-1 colon): > 100 µM
TGI (UACC-62 melanoma): > 91.8 µM
TGI (BT-549 breast): > 47.3 µM
TGI (XF 498 CNS): 8.29 µM
TGI (HOP-62 NSCLC): 3.08 µM
TGI (SF-539 CNS): 13 µM
TGI (A498 renal): 1.15 µM
TGI (RXF 393 renal): 2.97 µM
TGI (SNB-19 CNS): 20.7 µM
TGI (UACC-257 melanoma): 86.5 µM

Reference: PubChem BioAssay (NCI)
